Laboratory results: the supplement of paper PMC11061612

Columns and labels:
Assay in all cases: combination Emax (second highest fraction inhibited in the dose matrix, 72 h); higher = more inhibition; extreme values may be limits of the assay
[1] = tested on: 697 (B-Lymphoblastic Leukemia)
Outline: (§1)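 Bliss excess equals the observed combination effect minus the expected value EA + EB − EA·EB, where EA and EB are the effects of each agent alone. Combination Emax is the second-highest inhibition within the matrix. Inhibition was scaled from CellTiter-Glo 2.0 luminescence, with 0 set by vehicle wells and 1 by blank wells, after 72 hours of two-drug dosing of cells plated in 1536-well plates.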

[2] = tested on: CFPAC-1 (Pancreatic Carcinoma)
Outline: as §1

[3] = tested on: DOV13 (Ovarian Carcinoma)
Outline: as §1

ES7 (Ewing's Sarcoma) = tested on: ES7 (Ewing's Sarcoma)
Outline: as §1

[4] = tested on: G-292-Clone-A141B1 (Osteosarcoma)
Outline: as §1

[5] = tested on: HCC2157 (Breast Carcinoma)
Outline: as §1

IGR-1 (Melanoma) = tested on: IGR-1 (Melanoma)
Outline: as §1

[6] = tested on: IHH-4 (Thyroid Gland Carcinoma)
Outline: as §1

[7] = tested on: KARPAS-1106P (B-Cell Non-Hodgkin's Lymphoma)
Outline: as §1

[8] = tested on: KARPAS-620 (Plasma Cell Myeloma)
Outline: as §1

[9] = tested on: LS-513 (Colorectal Carcinoma)
Outline: as §1

[10] = tested on: LU-99A (Non-Small Cell Lung Carcinoma)
Outline: as §1

[11] = tested on: NCI-H1793 (Lung Adenocarcinoma)
Outline: as §1

NCI-H2369 (Mesothelioma) = tested on: NCI-H2369 (Mesothelioma)
Outline: as §1

RH-1 (Ewing's Sarcoma) = tested on: RH-1 (Ewing's Sarcoma)
Outline: as §1

SN12C (Kidney Carcinoma) = tested on: SN12C (Kidney Carcinoma)
Outline: as §1

[12] = tested on: SUIT-2 (Pancreatic Carcinoma)
Outline: as §1

[13] = tested on: SW1088 (Low Grade Glioma)
Outline: as §1

[14] = tested on: SW780 (Bladder Carcinoma)
Outline: as §1

[15] = tested on: TGBC24TKB (Biliary Tract Carcinoma)
Outline: as §1

SMILES | combination Emax [1] | combination Emax [2] | combination Emax [3] | combination Emax (ES7 (Ewing's Sarcoma)) | combination Emax [4] | combination Emax [5] | combination Emax (IGR-1 (Melanoma)) | combination Emax [6] | combination Emax [7] | combination Emax [8] | combination Emax [9] | combination Emax [10] | combination Emax [11] | combination Emax (NCI-H2369 (Mesothelioma)) | combination Emax (RH-1 (Ewing's Sarcoma)) | combination Emax (SN12C (Kidney Carcinoma)) | combination Emax [12] | combination Emax [13] | combination Emax [14] | combination Emax [15]
Cn1cnc2c(F)c(Nc3ccc(Br)cc3Cl)c(C(=O)NOCCO)cc21 [Selumetinib] + C[C@@H]1COCCN1C2=NC(=NC(=C2)C3(CC3)[S@](=N)(=O)C)C4=C5C=CNC5=NC=C4 [AZD6738] (first compound max 10 µM, 7x7, partner max 10 µM) | 1 | 0.667 | 0.763 | 0.777 | 0.141 | 0.856 | 0.707 | 0.646 | 0.648 | 0.935 | 0.897 | 0.569 | 0.524 | 0.187 | 0.899 | 0.192 | 0.386 | 0.65 | 0.381 | 0.703
CCN(CCO)CCCOc1ccc2c(Nc3cc(CC(=O)Nc4cccc(F)c4)[nH]n3)ncnc2c1 [AZD2811] + C=CCn1c(=O)c2cnc(Nc3ccc(N4CCN(C)CC4)cc3)nc2n1-c1cccc(C(C)(C)O)n1 [AZD1775] (first compound max 1 µM, partner max 1 µM) | 1 | 0.372 | 0.823 | 0.783 | 0.152 | 0.854 | 0.314 | 0.667 | 0.842 | 0.327 | 0.703 | 0.585 | 0.359 | 0.151 | 1 | 0.175 | 0.625 | 0.47 | 0.186 | 0.651
NC1(C(=O)N[C@@H](CCO)c2ccc(Cl)cc2)CCN(c2ncnc3[nH]ccc23)CC1 [Capivasertib] + Cn1cnc2c(F)c(Nc3ccc(Br)cc3Cl)c(C(=O)NOCCO)cc21 [Selumetinib] (first compound max 10 µM, 7x7, partner max 10 µM) | 0.617 | 0.491 | 0.371 | 0.448 | 0.371 | 1 | 0.915 | 0.607 | 0.586 | 0.96 | 0.867 | 0.709 | 0.39 | 0.231 | 0.317 | 0.352 | 0.646 | 0.618 | 0.421 | 0.556
COc1cccc(OCCCN)c1-c1cc(Nc2cnc(C#N)cn2)n[nH]1 [Prexasertib] + CCc1c2c(nc3ccc(O)cc13)-c1cc3c(c(=O)n1C2)COC(=O)[C@]3(O)CC [SN-38] (first compound max 1 µM, 7x7, partner max 0.3 µM) | 1 | 0.841 | 0.959 | 1 | 0.34 | 1 | 0.893 | 0.965 | 0.897 | 0.889 | 0.751 | 0.798 | 0.769 | 0.4 | 1 | 0.76 | 0.713 | 0.849 | 0.969 | 0.852
Cc1nc(Nc2ncc(C(=O)Nc3c(C)cccc3Cl)s2)cc(N2CCN(CCO)CC2)n1 [Dasatinib] + CC(=O)Nc1cccc(-n2c(=O)n(C3CC3)c(=O)c3c(Nc4ccc(I)cc4F)n(C)c(=O)c(C)c32)c1 [Trametinib] (first compound max 2 µM, 7x7, partner max 1 µM) | 0.708 | 0.847 | 0.814 | 0.294 | 0.722 | 0.423 | 0.351 | 0.896 | 0.741 | 0.645 | 0.998 | 0.943 | 0.567 | 0.277 | 0.08 | 0.455 | 0.671 | 0.666 | 0.625 | 0.736
CC1(C)CCC(CN2CCN(c3ccc(C(=O)NS(=O)(=O)c4ccc(NCC5CCOCC5)c([N+](=O)[O-])c4)c(Oc4cnc5[nH]ccc5c4)c3)CC2)=C(c2ccc(Cl)cc2)C1 [Venetoclax] + Cc1cc2ncnn2cc1Nc1ncc2c(n1)n(C1CCOCC1)c(=O)n2C [AZD7648] (first compound max 1 µM, 7x7, partner max 10 µM) | 0.983 | 0.275 | 0.476 | 0.714 | 0.221 | 0.628 | 0.174 | 0.259 | 0.458 | 0.989 | 0.192 | 0.404 | 0.41 | 0.164 | 0.242 | 0.218 | 0.198 | 0.341 | 0.163 | 0.332
Cc1cc2ncnn2cc1Nc1ncc2c(n1)n(C1CCOCC1)c(=O)n2C [AZD7648] + CN(C)CCCOc1ccc(-c2ccc3ncc4c(c3c2)n(C2CCOCC2)c(=O)n4C)cn1 [AZD0156] (first compound max 10 µM, 7x7, partner max 1 µM) | 0.486 | 0.235 | 0.325 | 0.433 | 0.341 | 0.478 | 0.0864 | 0.329 | 0.423 | 0.468 | 0.247 | 0.511 | 0.333 | 0.198 | 0.127 | 0.262 | 0.109 | 0.419 | 0.18 | 0.357
